Experimental data published in patent publication US11473064B2, “Hybrid alphavirus-SARS-CoV-2 particle and methodology of making and using same” (GEORGE MASON RESEARCH FOUNDATION, INC., priority 2020, dated 2022).

Test system: Ha-CoV-2(Luc)
Experiment: microbe, parasite or virus in culture
Format: cell-based, SARS-CoV-2
Details: Severe acute respiratory syndrome coronavirus 2, HEK-293T, read-out: IC50 (inhibition of Ha-CoV-2(Luc) infection)

CCOC(=O)c1c(CSc2ccccc2)n(C)c2cc(Br)c(O)c(CN(C)C)c12 [Arbidol, Arbidol (Umifenovir)]
IC50: 16 µM
